In data set [1] the test system is CS from rat kidney. On the set-up: method as in Matsuoka and Srere 1973; Lee et al. 1997. Conditions: ref Matsuoka and Srere 1973; Lee et al. 1997; cited from earlier work.
The test system of data set [2] is CS from Drosophila melanogaster. On the set-up: method as in Matsuoka and Srere 1973; Lee et al. 1997. Conditions: ref Matsuoka and Srere 1973; Lee et al. 1997; cited from earlier work.
For data set [3], the target named is T1, rPcCS (mitochondrial citrate synthase) (Phanerodontia chrysosporium, UniProt Q0EAA7).
T1 sequence (Q0EAA7 1-446): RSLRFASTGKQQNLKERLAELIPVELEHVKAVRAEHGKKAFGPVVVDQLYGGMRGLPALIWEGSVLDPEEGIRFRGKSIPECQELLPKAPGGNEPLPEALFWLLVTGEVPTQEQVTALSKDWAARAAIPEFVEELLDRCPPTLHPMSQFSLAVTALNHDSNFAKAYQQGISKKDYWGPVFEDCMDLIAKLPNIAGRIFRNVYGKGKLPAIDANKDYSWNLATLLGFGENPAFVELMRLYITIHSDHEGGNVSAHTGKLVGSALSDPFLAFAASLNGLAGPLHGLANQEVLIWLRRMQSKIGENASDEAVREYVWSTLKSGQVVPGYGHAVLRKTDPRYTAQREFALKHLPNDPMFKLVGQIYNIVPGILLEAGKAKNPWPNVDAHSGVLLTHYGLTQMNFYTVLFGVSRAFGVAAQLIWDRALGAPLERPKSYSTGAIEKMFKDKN
Nature of the data set: CS assay (DTNB method) and steady-state kinetic analysis. The data set is classed as biochemical, Phanerochaete chrysosporium. As to conditions: at a concentration more than 10 times the inhibitory concentration of hemin (data not shown). As to the method: CS was assayed by the 5, 5′-dithiobis-2-nitrobenzoic acid (DTNB) method, as described previously (Srere et al. [1963]). […] CS catalyzes the reaction of OAA with AcCoA, generating citrate and CoA. Thus, reactions were monitored by the amount of released CoA, which was followed at 412 nm (ε 13 600 M^–1cm^–1) by the formation of 2-nitro-5-mercaptobenzoic acid, via the reaction of CoA with DTNB. Reactions were monitored for 1 min, and initial velocity was determined. […] Inhibition studies were carried out in the presence of 0–2.5 μM hemin as described above. Kinetic parameters were determined from Lineweaver–Burk plots, and Ki values were determined from the secondary plot of the slopes of the Lineweaver–Burk plots. Hemin and OAA solutions were prepared immediately prior to use.
Fig. 5 Inhibitory effect of hemin on PcCS reaction. […] Reaction mixtures contained 1.5 nM rPcCS, 40 mM Tris-HCl (pH 8.5), and 120 μM DTNB. Fixed substrate was added at 12 μM and variable substrate at 3–12 μM. […] Insets: secondary plots of each slope of Lineweaver–Burk plots against the concentration of hemin for determining inhibition constants.

Data set [4] has as its target T2, recombinant PcGAPDH (rPcGAPDH) (Phanerodontia chrysosporium, UniProt Q01982).
T2 construct: 6xHis-tag (pET-30) (cleaved yes); made in house; host or cells: E. coli BL21(DE3)pLysS
The data set can be described thus: GAPDH assay and steady-state kinetic analysis. The data set is classed as biochemical, Phanerochaete chrysosporium. As to conditions: 1 μM inhibitor, 5-min incubation, 0.6 mM GAP3 (Fig. 2C). The procedure: GAPDH assay was performed as previously described (Campanale et al. [2003]). For steady-state kinetic analysis, the reaction mixture (1 ml) contained 40 mM phosphate (pH 7.6), 5.2 μg recombinant PcGAPDH (rPcGAPDH), 40 mM triethanolamine, 5 mM NAD^+, and 0.6–2 mM glyceraldehyde 3-phosphate (GAP3). Reactions were monitored by the increase in absorbance at 340 nm (ε 6220 M^–1 cm^–1) for 1 min, and initial velocities were determined. Inhibitory experiments were done in the presence of 0–2.5 μM hemin. To examine the effect of hemin on GAPDH kinetics, PcGAPDH was incubated with either buffer (control) or hemin for 5 min prior to initiating the reaction. Kinetic parameters were determined from Lineweaver–Burk plots, and Ki values were determined from the secondary plot of each slope of the Lineweaver–Burk plots. Immediately prior to use, hemin was dissolved at 10 mM in 0.1 M NaOH and diluted with 40 mM Tris–HCl (pH 7.5).
Fig. 2 Heterologous expression of PcGAPDH and inhibitory effect of hemin on GAPDH reaction. A M, molecular weight marker; lane 1, rPcGAPDH-His-tag; lane 2, His-tag-cleaved rPcGAPDH. B Reaction mixtures containing 2.5 nM rPcGAPDH, 40 mM phosphate (pH 7.6), 40 mM triethanolamine, 5 mM NAD^+, and 0.6–2 mM GAP3. […] Inset: secondary plots of each slope of Lineweaver–Burk plots against the concentration of hemin for determining inhibition constants. C Reaction mixtures containing 2.5 nM rPcGAPDH, 40 mM phosphate (pH 7.6), 40 mM triethanolamine, 5 mM NAD^+, and 0.6 mM GAP3. Reactions were started by adding substrates followed by 5-min incubation with either buffer or 1 μM inhibitor (hemin or protoporphyrin IX, PPIX). […] All experiments were performed in triplicate. Bars indicated as mean values ± standard deviation (error bars)

Substrate in data set [5]: O=C(O)CC(=O)C(=O)O
The data set can be described thus: purified protein, by the assay type. Conditions: other: rPcCS, substrate OAA; pH 8.5.

Substrate in data set [6]: CC(=O)SCCNC(=O)CCNC(=O)[C@H](O)C(C)(C)COP(=O)(O)OP(=O)(O)OC[C@H]1O[C@@H](n2cnc3c(N)ncnc32)[C@H](O)[C@@H]1OP(=O)(O)O
Nature of the data set: purified protein, by the assay type. As to conditions: other: rPcCS, substrate AcCoA; pH 8.5.

T2 sequence (Q01982 whole entry): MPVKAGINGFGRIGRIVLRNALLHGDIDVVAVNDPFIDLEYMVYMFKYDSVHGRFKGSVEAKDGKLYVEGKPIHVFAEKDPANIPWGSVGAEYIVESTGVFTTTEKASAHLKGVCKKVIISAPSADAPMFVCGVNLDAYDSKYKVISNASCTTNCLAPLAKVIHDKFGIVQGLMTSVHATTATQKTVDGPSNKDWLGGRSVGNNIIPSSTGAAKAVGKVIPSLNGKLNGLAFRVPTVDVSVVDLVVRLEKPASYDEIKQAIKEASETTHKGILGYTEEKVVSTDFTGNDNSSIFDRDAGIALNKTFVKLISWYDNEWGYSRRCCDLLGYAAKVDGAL

As to `CC(C)(COP(=O)(O)OP(=O)(O)OC[C@H]1O[C@@H](n2cnc3c(N)ncnc32)[C@H](O)[C@@H]1OP(=O)(O)O)[C@@H](O)C(=O)NCCC(=O)NCCS` [CoA, coenzyme A], the mode of inhibition entry in data set [1] was “competitive inhibitors of AcCoA and as non-competitive inhibitors of OAA”; in data set [2] it was “competitive inhibitors of AcCoA and as non-competitive inhibitors of OAA”.
As to `CCC(=O)SCCNC(=O)CCNC(=O)[C@H](O)C(C)(C)COP(=O)(O)OP(=O)(O)OC[C@H]1O[C@@H](n2cnc3c(N)ncnc32)[C@H](O)[C@@H]1OP(=O)(O)O` [propionyl-CoA], the mode of inhibition result is “competitive inhibitors of AcCoA and as non-competitive inhibitors of OAA” in data set [1]; “competitive inhibitors of AcCoA and as non-competitive inhibitors of OAA” in data set [2].
For `C=CC1=C(C)c2cc3[nH]c(cc4nc(cc5[nH]c(cc1n2)c(C)c5CCC(=O)O)C(CCC(=O)O)=C4C)c(C)c3C=C` [protoporphyrin IX], the “inhibition of PcCS” value in data set [3] was “slightly inhibited”. For the same molecule, the “inhibition of PcGAPDH activity” value in data set [4] is “as effectively as by hemin”.

B1: rPcCS (mitochondrial citrate synthase) (Phanerodontia chrysosporium) (protein)
chain: T1 sequence (Q0EAA7 1-446)
Broadly, the Km is the substrate concentration at which the rate is half of its maximum. The Vmax is the rate approached at saturating substrate. Regarding B1, in data set [5], the Km amounted to 6.2 µM and the Vmax was found to be 31.4 nmol/min/mL. Further, in data set [6], the Km worked out at 4.2 µM and the Vmax was 25.8 nmol/min/mL.
